In patent US20150368195A1, “INDOLINE COMPOUNDS FOR TREATMENT AND/OR PREVENTION OF INFLAMMATION DISEASES” (Taipei Medical University, priority 2014, published 2015):

Tested on: histone H3 (Acetyl-H3)
Assay: histone H3 acetylation, Western blot, RA-FLS
Format: cell-based
Settings: 1 μM MPT0G009 or 30 μM SAHA; 6, 12, 24 h; starting at 12 h
Experimental: Then cells were harvested and cell lysates were prepared for Western blot analysis of the indicated proteins. (FIG. 5C) RA-FLS were incubated for 1 h with or without the proteasome inhibitor, MG132 (1 μM). […] Results shown are representative of three independent experiments.
This was a proteasome-dependent effect because it was reduced by pretreatment with the proteasome inhibitor, MG132 (1 μM; FIG. 5c).

COc1ccc(S(=O)(=O)N2CCc3cc(C=CC(=O)NO)ccc32)cc1 [Compound 9, 3-[1-(4-methoxybenzenesulfonyl)-2,3-dihydro-1H-indol-5-yl]-N-Hydroxyacrylamide]
acetylation of histone H3 in RA-FLS: significant hyperacetylation of histone H3
